Assay results reported in US20250120417A1, “FEED ADDITIVE COMPOSITIONS AND METHODS FOR USING THE SAME” (INT[…]&H DENMARK APS, priority 2021, published 2025).

Experiments:
NetB toxin = format: cell-based, Clostridium perfringens strain 25037-CP01
netB gene = format: cell-based, Clostridium perfringens
HT-29 cells = format: cell-based, human

Row | Molecule | level of extracellular NetB toxin secreted into the media (NetB toxin) | netB expression / toxin producing population in single cell data (netB gene) | HT29 cell death (HT-29 cells)
1 | ammonium phosphate | reduced |  | 
2 | Cc1ncc(CO)c(CO)c1O.Cl [Vitamin B6] | reduced |  | 
3 | N=C(N)NCCC[C@H](N)C(=O)O [arginine] |  | small reduction | 
4 | CC(=O)[O-].[Na+] [sodium acetate] | reduced |  | 
5 | Vitamin B12 | reduced |  | 
6 | NCCC[C@H](N)C(=O)O [ornithine] |  | small reduction | 
7 | N[C@@H](CC(=O)O)C(=O)O [aspartic acid] | lower the level | marked reduction | less than 10%
8 | Cc1ncc(C[n+]2csc(CCO)c2C)c(N)n1 [Vitamin B1] | reduced |  | 
